From the supplement of paper PMC11451515

Tests used:
Experiment in all cases: AUC of viability dose-response curve (% viability x log10 dose units); higher = less sensitive
Conditions in all cases: 48 h
NOMO1 = test system: NOMO1
Procedure, shortened: (§1)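 Over 48 h at 37°C, leukemia cells in 1536-well plates (500 or 1000 cells/well), adapted to each medium, received library compounds in DMSO at 11 threefold doses from 47 μM to 0.79 nM. CellTiter-Glo One luminescence, normalised per plate to DMSO and cell-free wells, was fitted by a four-parameter log-logistic function of log10 dose. The area under the curve was then integrated by trapezoidal rule, after scaling curves above full viability and removing those that failed quality control.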

SEM cells = test system: SEM cells
Procedure, shortened: as §1

P12-Ichikawa = test system: P12-Ichikawa
Procedure, shortened: as §1

[1] = RPMI 5 mM glucose + 10% dialyzed FBS

Row | Structure (SMILES) | AUC of viability dose-response curve (NOMO1; HPLM + 10% dialyzed FBS) | AUC of viability dose-response curve (NOMO1; RPMI 5 mM glucose + 10% FBS) | AUC of viability dose-response curve (NOMO1; [1]) | AUC of viability dose-response curve (SEM cells; HPLM + 10% dialyzed FBS) | AUC of viability dose-response curve (SEM cells; RPMI 5 mM glucose + 10% FBS) | AUC of viability dose-response curve (SEM cells; [1]) | AUC of viability dose-response curve (P12-Ichikawa; HPLM + 10% dialyzed FBS) | AUC of viability dose-response curve (P12-Ichikawa; RPMI 5 mM glucose + 10% FBS) | AUC of viability dose-response curve (P12-Ichikawa; [1])
1 | OC1=CC=C(C=C1)\C2=C\C(=O)C3=C(O2)C=C(O)C=C3O | 451 | 457 | 448 | 462 | 430 | 443 | 467 | 456 | 453
2 | NC\1=N\C(=O)N(\C=C1)[C@H]\2[C@H](O)[C@H](O)C(=C2F)\CO | 369 | 378 | 369 | 376 | 421 | 353 | 361 | 394 | 389
3 | COC1=CC2=C(C=C1OC)[C@H]3[C@@H](CO2)OC4=C(C=CC5=C4\C=C/C(C)(C)O5)C3=O | 402 | 404 | 406 | 409 | 357 | 326 | 399 | 327 | 341
4 | C#C[C@]1(O)CC[C@H]2[C@@H]3CCc4cc(OC)ccc4[C@H]3CC[C@@]21C | 453 | 457 | 457 | 444 | 470 | 471 | 433 | 468 | 471
5 | O=c1[nH]cnc2c1ncn2[C@H]1CC[C@@H](CO)O1 | 447 | 420 | 431 | 460 | 409 | 409 | 468 | 463 | 444
6 | COc1ccnc(C[S+]([O-])c2nc3cc(OC(F)F)ccc3[nH]2)c1OC (configuration not stated) | 459 | 464 | 474 | 435 | 431 | 461 | 474 | 456 | 461
7 | CN(C)c1ccc2cc(C(=O)N[C@@H](CCCNC(=N)CCl)C(=O)NCc3ccccc3)ccc2c1 | 443 | 447 | 451 | 450 | 434 | 444 | 451 | 446 | 449
8 | CN[C@@H]1C[C@H]2O[C@@](C)([C@@H]1OC)n1c3ccccc3c3c4c(c5c6ccccc6n2c5c31)C(=O)N[C@H]4O | 279 | 264 | 289 | 220 | 226 | 232 | 280 | 249 | 271
9 | CC(C)(C)c1cc(C(=O)O)c(NC(=O)Nc2ccc3[nH]ncc3c2)s1 | 427 | 418 | 422 | 442 | 447 | 440 | 433 | 426 | 438
10 | O=C1NC(O)CCN1[C@@H]1O[C@H](CO)[C@@H](O)[C@H]1O (some centres not stated) | 435 | 459 | 457 | 463 | 443 | 465 | 456 | 437 | 467
11 | OCCCNc1cc(-c2ccnc(Nc3cccc(Cl)c3)n2)ccn1 | 264 | 258 | 262 | 249 | 260 | 254 | 308 | 294 | 295
12 | CCCCCCCCc1ccc(CCC(N)(CO)CO)cc1 | 353 | 433 | 401 | 441 | 452 | 454 | 432 | 407 | 429
13 | CC(=O)[C@H]1CC[C@H]2[C@@H]3CCC4=CC(=O)CC[C@]4(C)[C@H]3CC[C@]12C | 454 | 447 | 433 | 432 | 470 | 456 | 465 | 455 | 465
14 | CC[C@@]1(O)C[C@H](O[C@H]2C[C@H](N(C)C)[C@H](O[C@H]3C[C@H](O)[C@H](O[C@H]4CCC(=O)[C@H](C)O4)[C@H](C)O3)[C@H](C)O2)c2c(cc3c(c2O)C(=O)c2c(O)cccc2C3=O)[C@H]1C(=O)OC | 426 | 430 | 410 | 217 | 225 | 200 | 463 | 417 | 425
15 | CC(NCc1ccc2c(c1)[nH]/c(=N\C(=O)c1ccc(-c3cn[nH]c3)s1)n2CC(C)(C)O)C(C)(C)C (configuration not stated) | 321 | 358 | 347 | 177 | 194 | 170 | 350 | 349 | 345
16 | O=C1N\2CCC3=C([NH]C4=C3C=CC=C4)C2=N/C5=CC=CC=C15 | 465 | 461 | 466 | 461 | 456 | 451 | 465 | 457 | 454
17 | CC(=O)O[C@@]12CO[C@@H]1C[C@H](O)[C@]3(C)[C@@H]2[C@H](OC(=O)C4=CC=CC=C4)[C@]5(O)C[C@H](OC(=O)C(O)[C@@H](NC(=O)OC(C)(C)C)C6=CC=CC=C6)C(=C(/[C@@H](O)C3=O)C5(C)C)/C (some centres not stated) | 147 | 112 | 118 | 112 | 78.5 | 86.9 | 126 | 125 | 174
18 | C#Cc1cccc(Nc2ncnc3cc(OC)c(OCCCCCCC(=O)NO)cc23)c1 | 276 | 313 | 300 | 264 | 216 | 254 | 253 | 254 | 244
19 | NC(=O)Nc1cc(-c2ccc(CN3CCOCC3)cc2)sc1C(N)=O | 369 | 331 | 338 | 262 | 240 | 240 | 236 | 246 | 266
20 | CC(C)C[C@H](NC(=O)[C@H](Cc1ccccc1)NC(=O)c1cnccn1)B(O)O | 182 | 171 | 181 | 138 | 147 | 129 | 173 | 173 | 171
21 | C[C@@H]1C[C@H]2[C@@H]3CC\C4=C\C(=O)\C=C/[C@]4(C)[C@@]3(Cl)[C@@H](O)C[C@]2(C)[C@@]1(OC(=O)C5=CC=CO5)C(=O)CCl | 442 | 454 | 451 | 245 | 236 | 222 | 313 | 265 | 234
22 | CCNc1cc(NC2CCC(O)CC2)nc(Nc2ccc3c(ccn3Cc3ccccc3)c2)n1 (configuration not stated) | 471 | 472 | 464 | 471 | 471 | 466 | 474 | 467 | 469
23 | Cc1cc(O)c2c(c1)C(=O)c1cc(O)cc(O)c1C2=O | 462 | 437 | 454 | 457 | 470 | 469 | 467 | 468 | 449
